# Test results published in US7652053B2, “Diaminocycloalkane MCH receptor antagonists” (Hoffmann-La Roche Inc., priority 2006, dated 2010).
# Where a name gives a salt, the structure may show the parent alone. Read-outs that look alike come from different tables or passages of the source.
# Molecular target: T1, recombinant human MCHR1 receptors (Homo sapiens, UniProt Q99705)
# T1 construct: expressed in transfected cells
# Experiment: MCHR Filter Binding Assay (competition binding with [Phe13[125I]Tyr19]-MCH)
# Experimental: Competition binding assay was conducted in MultiScreen […] glass fiber type B filter plates (96-well, Millipore). The MultiScreen plates were pretreated by incubation with 0.5% polyvinylpyrrolidone solution containing 1% BSA and 0.1% tween-20 for 12 hours at 4° C. and washed five times with ice-cold 10 mM Tris buffer, pH 7.5, followed by incubation with 200 µL of binding buffer (50 mM HEPES, 2.5 mM CaCl2, 0.05 mM BSA, 1 mM phenanthroline, 0.03 mM Triton X-100) for 5 min at room temperature and plates were drained before the binding reactions. The binding assay was performed by pre-incubating 2.8 µg of membranes from CHO-K1 cells stably expressing the recombinant human MCHR1 receptors, and various concentrations (final concentration 0.059 nM to 45 µM) of unlabeled MCH or antagonists in binding buffer for 15 min at room temperature. The competition reaction was started by adding final concentration (0.2 nM) [Phe^13[^125I]Tyr^19]-MCH (PerkinElmer). The final volume of the reaction was 90 µL per well. After 60 min incubation time at room temperature the reaction was stopped by rapid filtration over 96-well filter plates. Following termination of the binding reactions, the filters were washed with ice-cold binding buffer (4×200 µL), and were air dried for 30 min. Scintillation cocktail (60 µL) was added to each well and radioactivity bound to the plates was determined using a Micro-beta plate reader (Wallace/PerkinElmer). The inhibition potency of antagonist was expressed as IC50, the concentration of compound at which the binding of radio labeled MCH to MCHR1 was inhibited by 50%.
# [1] = membranes from CHO-K1 cells stably expressing human MCHR1, 0.2 nM radiolabeled MCH, read-out: Activity in MCHR binding assays (IC50 class)
# [2] = inhibition of binding of MCH to MCHR
# [3] = inhibition of binding of MCH to MCHR, read-out: MCHR IC50
# T1 sequence (Q99705 whole entry): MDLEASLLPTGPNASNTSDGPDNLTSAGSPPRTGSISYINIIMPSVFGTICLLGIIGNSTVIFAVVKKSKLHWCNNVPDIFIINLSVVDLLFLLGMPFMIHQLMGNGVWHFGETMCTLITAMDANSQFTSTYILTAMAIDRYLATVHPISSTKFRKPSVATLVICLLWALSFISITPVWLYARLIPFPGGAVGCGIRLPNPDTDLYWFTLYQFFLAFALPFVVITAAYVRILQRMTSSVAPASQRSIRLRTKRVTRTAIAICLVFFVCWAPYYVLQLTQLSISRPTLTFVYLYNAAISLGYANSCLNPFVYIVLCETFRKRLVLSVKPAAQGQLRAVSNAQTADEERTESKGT
SMILES,IC50 [1],Ki [2],IC50 [3]
"Cc1ccc2c(c1)nc(C)n2[C@@H]1CC[C@@H](NCC2Cc3ccc(Cl)cc3C2)C1 (relative stereo) [Example 3, trans-(5-Chloro-indan-2-ylmethyl)-[3-(2,5-dimethyl-benzoimidazol-1-yl)-cyclopentyl]-amine]",100 to 1000 nM,–,–
"Cc1ccc2c(c1)nc(C)n2[C@H]1CC[C@@H](NC2Cc3ccccc3C2)CC1 [Example 1, cis-4-(2,5-Dimethyl-benzoimidazol-1-yl)-cyclohexyl]-indan-2-yl-amine; hydrochloride]",100 to 1000 nM,–,–
"Cc1ccc2c(c1)nc(C)n2[C@@H]1CC[C@@H](NC[C@H]2Cc3ccc(Br)cc3C2)C1 [Example 2, trans-(S)-(5-Bomo-indan-2-ylmethyl)-[3-(2,5-dimethyl-benzoimidazol-1-yl)-cyclopentyl]-amine]",100 to 1000 nM,–,–
"Cc1ccc2c(c1)nc(C)n2[C@@H]1CC[C@H](NC[C@H]2Cc3ccc(Br)cc3C2)C1 [Example 5, cis-(S)-(5-Bromo-indan-2-ylmethyl)-[3-(2,5-dimethyl-benzoimidazol-1-yl)-cyclopentyl]-amine]",100 to 1000 nM,–,–
"Cc1ccc2c(c1)nc(C)n2[C@H]1CC[C@@H](NC2Cc3ccc(Cl)cc3C2)CC1 (stereo partly drawn) [Example 6, cis-(5-Chloro-indan-2-yl)-[4-(2,5-dimethyl-benzoimidazol-1-yl)-cyclohexyl]-amine; hydrochloride]",10 to 100 nM,–,–
"CC(C)(O)c1nc2cc(Cl)ccc2n1[C@H]1CC[C@@H](NCC2Cc3ccccc3C2)CC1 [Example 9, cis-2-(5-Chloro-1-{4-[(indan-2-ylmethyl)-amino]-cyclohexyl}-1H-benzoimidazol-2-yl)-propan-2-ol]",10 to 100 nM,–,–
"CC(C)(O)c1nc2cc(Cl)ccc2n1[C@H]1CC[C@@H](NCC2Cc3ccc(Cl)cc3C2)CC1 (stereo partly drawn) [Example 10, cis-2-(5-Chloro-1-{4-[(5-chloro-indan-2-ylmethyl)-amino]-cyclohexyl}-1H-benzoimidazol-2-yl)-propan-2-ol]",10 to 100 nM,–,–
"Cc1ccc2c(c1)nc(C)n2[C@H]1CC[C@@H](NCC2Cc3ccc(Cl)cc3C2)CC1 (stereo partly drawn) [Example 11, cis-(5-Chloro-indan-2-ylmethyl)-[4-(2,5-dimethyl-benzoimidazol-1-yl)-cyclohexyl]-amine]",10 to 100 nM,–,–
"Cc1ccc2c(c1)nc(C)n2[C@H]1CC[C@@H](NCC2Cc3ccc(C(F)(F)F)cc3C2)CC1 (stereo partly drawn) [Example 12, cis-[4-(2,5-Dimethyl-benzoimidazol-1-yl)-cyclohexyl]-(5-trifluoromethyl-indan-2-ylmethyl)-amine]",100 to 1000 nM,–,–
"Cc1ccc2c(c1)nc(C(C)(C)O)n2[C@H]1CC[C@@H](NCC2Cc3ccc(F)cc3C2)CC1 (stereo partly drawn) [Example 18, cis-2-(1-{4-[(5-Fluoro-indan-2-ylmethyl)-amino]-cyclohexyl}-5-methyl-1H-benzoimidazol-2-yl)-propan-2-ol]",10 to 100 nM,–,–
"Cc1ccc2c(c1)nc(C(C)(C)O)n2[C@H]1CC[C@H](NCC2Cc3ccc(F)cc3C2)CC1 (stereo partly drawn) [Example 19, trans-2-(1-{4-[(5-Fluoro-indan-2-ylmethyl)-amino]-cyclohexyl}-5-methyl-1H-benzoimidazol-2-yl)-propan-2-ol]",100 to 1000 nM,–,–
"Cc1ccc2c(c1)nc(C(C)(C)O)n2[C@H]1CC[C@@H](NCC2Cc3ccc(Cl)cc3C2)CC1 (stereo partly drawn) [Example 20, cis-2-(1-{4-[(5-Chloro-indan-2-ylmethyl)-amino]-cyclohexyl}-5-methyl-1H-benzoimidazol-2-yl)-propan-2-ol]",10 to 100 nM,21 nM,26 nM
"CC(C)(O)c1nc2cc(Cl)ccc2n1[C@H]1CC[C@@H](NC[C@@H]2Cc3ccc(C#N)cc3C2)CC1 [Example 22, cis-(R)-2-({4-[5-Chloro-2-(1-hydroxy-1-methyl-ethyl)-benzoimidazol-1H-yl]-cyclohexylamino}-methyl)-indan-5-carbonitrile]",< 10 nM,–,–
"CC(C)(O)c1nc2cc(Cl)ccc2n1[C@H]1CC[C@@H](NC[C@@H]2Cc3ccc(Br)cc3C2)CC1 [Example 24, cis-(R)-2-(1-{4-[(5-Bromo-indan-2-ylmethyl)-amino]-cyclohexyl}-5-chloro-1H-benzoimidazol-2-yl)-propan-2-ol]",10 to 100 nM,–,–

# More lines, now with the values ahead:
IC50 [1],Ki [2],IC50 [3],SMILES
100 to 1000 nM,–,–,"CC(C)(O)c1nc2cc(Cl)ccc2n1[C@H]1CC[C@@H](NCC2Cc3ccc(C(F)(F)F)cc3C2)CC1 (relative stereo) [Example 8, cis-2-(5-Chloro-1-{4-[(5-trifluoromethyl-indan-2-ylmethyl)-amino]-cyclohexyl}-1H-benzoimidazol-2-yl)-propan-2-ol]"
10 to 100 nM,–,–,"Cc1ccc2c(c1)nc(C)n2[C@H]1CC[C@@H](NC[C@H]2Cc3ccc(Br)cc3C2)CC1 [Example 4, cis-(S)-(5-Bromo-indan-2-ylmethyl)-[4-(2,5-dimethyl-benzoimidazole-1-yl)-cyclohexyl]-amine hydrochloride]"
10 to 100 nM,19 nM,24 nM,"CC(C)(O)c1nc2cc(Cl)ccc2n1[C@H]1CC[C@@H](NC[C@H]2Cc3ccc(Br)cc3C2)CC1 [Example 7, cis-(S)-2-(1-{4-[(5-Bromo-indan-2-ylmethyl)-amino]-cyclohexyl}-5-chloro-1H-benzoimidazol-2-yl)-propan-2-ol]"
100 to 1000 nM,–,–,"Cc1ccc2c(c1)nc(C)n2[C@H]1CC[C@@H](NCC2Cc3ccccc3C2)CC1 [Example 13, cis-[4-(2,5-Dimethyl-benzoimidazol-1-yl)-cyclohexyl]-indan-2-ylmethyl-amine]"
< 10 nM,1.8 nM,2.2 nM,"CC(C)(O)c1nc2cc(Cl)ccc2n1[C@H]1CC[C@@H](NC[C@H]2Cc3ccc(C#N)cc3C2)CC1 [Example 14, cis-(S)-2-({4-[5-Chloro-2-(1-hydroxy-1-methyl-ethyl)-benzoimidazol-1-yl]-cyclohexylamino}-methyl)-indan-5-carbonitrile]"
10 to 100 nM,–,–,"Cc1ccc2c(c1)nc(C)n2[C@H]1CC[C@@H](NC[C@H]2Cc3ccc(C#N)cc3C2)CC1 [Example 15, cis-(S)-2-{[4-(2,5-Dimethyl-benzoimidazol-1-yl)-cyclohexylamino]-methyl}-indan-5-carbonitrile]"
< 10 nM,–,–,"Cc1ccc2c(c1)nc(C(C)(C)O)n2[C@H]1CC[C@@H](NC[C@H]2Cc3ccc(C#N)cc3C2)CC1 [Example 16, cis-(S)-2-({4-[2-(1-Hydroxy-1-methyl-ethyl)-5-methyl-benzoimidazol-1-yl]-cyclohexylamino}-methyl)-indan-5-carbonitrile]"
100 to 1000 nM,–,–,"Cc1ccc2c(c1)nc(C(C)(C)O)n2[C@H]1CC[C@H](NC[C@H]2Cc3ccc(C#N)cc3C2)CC1 [Example 17, trans-(S)-2-({4-[2-(1-Hydroxy-1-methyl-ethyl)-5-methyl-benzoimidazol-1-yl]-cyclohexylamino}-methyl)-indan-5-carbonitrile]"
100 to 1000 nM,–,–,"Cc1ccc2c(c1)nc(C(C)(C)O)n2[C@H]1CC[C@H](NCC2Cc3ccc(Cl)cc3C2)CC1 (stereo partly drawn) [Example 21, trans-2-(1-{4-[(5-Chloro-indan-2-ylmethyl)-amino]-cyclohexyl}-5-methyl-1H-benzoimidazol-2-yl)-propan-2-ol]"
100 to 1000 nM,154 nM,193 nM,"CC(=O)N(C[C@H]1Cc2ccc(C#N)cc2C1)[C@H]1CC[C@@H](n2c(C(C)(C)O)nc3cc(Cl)ccc32)CC1 [Example 23, cis-(S)—N-{4-[5-Chloro-2-(1-hydroxy-1-methyl-ethyl)-benzoimidazol-1-yl]-cyclohexyl}-N-(5-cyano-indan-2-ylmethyl)-acetamide]"
10 to 100 nM,–,–,"Cc1nc2cc(C#N)ccc2n1[C@H]1CC[C@@H](NCC2Cc3ccc(Cl)cc3C2)CC1 (stereo partly drawn) [Example 25, cis-1-{4-[(5-Chloro-indan-2-ylmethyl)-amino]-cyclohexyl}-2-methyl-1H-benzoimidazole-5-carbonitrile]"
< 10 nM,2 nM,3 nM,"Cc1nc2cc(F)ccc2n1[C@H]1CC[C@@H](NC[C@H]2Cc3ccc(C#N)cc3C2)CC1 [Example 26, cis-(S)-2-{[4-(5-Fluoro-2-methyl-benzoimidazol-1-yl)-cyclohexylamino]-methyl}-indan-5-carbonitrile]"
